Test results as given in article PMC11200585, “Prospects for Prostate Cancer Chemotherapy: Cytotoxic Evaluation and Mechanistic Insights of Quinolinequinones with ADME/PK Profile” (Biomedicines, 2024).

Columns and labels:
[1] = In vitro metabolic stability; type: in vitro ADME, dog (Beagle); details: Dog liver microsomes; for % Metabolism in 30 min: 0.5 µM, 0.5 mg/mL protein; for half-life at 0.5 µM / microsomal CLint at 0.5 µM: male, Beagle, pH 7.4
Method: (§1) S2. ADME and PK Profiling
(§2) S2.1. In vitro Metabolic Stability Study […]
(§3) metabolic stability of AQQ1 and AQQ2. A final protein (liver microsomal) concentration of 0.5 mg/mL and final test substance (AQQ1 and AQQ2) concentration of 0.5 µM were used for the study. To the respective microsomes at a volume of 12.5 µL in the well, 2.5 µL of test substance ([…] in acetonitrile: dimethyl sulfoxide, 96:4) in the presence and absence of NADPH (50 µL, 10 mM) were added and the final volume made up to 500 µL with sodium phosphate buffer (50 mM, pH 7.4). The one without NADPH served as control. Sampling (50 µL) were done at the following time points: 0, 5, 10, 15, and 30 min for sample and at 0 and 30 min for control.
(§4) Acetonitrile (150 µL) was used as quenching solvent, internal standard (Rolipram) was added, vortexed/centrifuged and the aliquot from the supernatant was analyzed using LC-MS/MS. All the experiments were performed in duplicate.

DU-145 cells = assay: MTT assay; type: cell-based; details: Homo sapiens, 24 h, mean ± SEM
Method: (§5) For the MTT assay, DU-145, MDA-MB-231, HCT-116, and HUVEC cells (American Type Culture Collection) were seeded at a concentration of 1 × 10^4 cells per well in 96-well plates and allowed to incubate overnight, ensuring proper adherence. Subsequently, a series of concentrations for both AQQ1 and AQQ2 (ranging from 1 to 100 µM) were added to the culture medium with a final concentration of 1% DMSO, and cells were subjected to an additional 24 h incubation period. The control group only received 1% DMSO (Biomatik, Cambridge, ON, Canada). To establish a baseline for comparison, DOXO (Saba, İstanbul, Turkey), a known chemotherapeutic agent, was administered at equivalent concentrations. Following the incubation period, MTT (3-(4,5-dimethylthiazol-2-yl)-2,5-diphenyltetrazolium bromide) (Biomatik, Canada) assay was carried out to assess cell viability. Finally, the absorbance was quantified at 590 nm using a BioTek Epoc plate reader (Biotek, Winooski, VT, USA). The derived data were analysed using GraphPad Prism 8 software to calculate the inhibitory concentration 50 (IC50) values of the test compounds.

MDA-MB-231 cells = assay: MTT assay; type: cell-based; details: Homo sapiens, 24 h, mean ± SEM
Method: as §5

HCT-116 cells = assay: MTT assay; type: cell-based; details: Homo sapiens, 24 h, mean ± SEM
Method: as §5

[2] = system: Human Umbilical Vein Endothelial Cells (HUVEC); assay: MTT assay; type: cell-based; details: 24 h, mean ± SEM
Method: as §5

HCT-15 = assay: NCI-60 one-dose screen (colon cancer); type: cell-based, human; details: 10 µM single dose, 48 h
Method: (§6) The obtained quinolinequinones were submitted to NCI, Bethesda, USA, and, as per standard protocol of NCI, all compounds were evaluated for their antiproliferative activity at single-dose assay (10 µM concentration in DMSO) on a panel of 60 cancer cell lines derived from leukemia, non-small-cell lung, colon, CNS, melanoma, ovarian, renal, prostate, and breast, as per protocol. Tested compounds were added to the microtiter culture plates followed by incubation for 48 h at 37 °C. Sulforhodamine B (SRB), a protein-binding dye, is used for endpoint determination. The percent of the growth of the treated cells was determined in comparison to the untreated control cells and the results of each tested compound were reported. Data from one-dose experiments pertain to the percentage growth at 10 μM [16, 17, 18].

SW-620 = assay: NCI-60 one-dose screen (colon cancer); type: cell-based, human; details: 10 µM single dose, 48 h
Method: as §6

HT29 = assay: NCI-60 one-dose screen (colon cancer); type: cell-based, human; details: for GP (growth percentage): 10 µM single dose, 48 h; for inhibition at 10 µM: Homo sapiens, HT-29, 10 µM single dose
Method: as §6

COLO 205 = assay: NCI-60 one-dose screen (colon cancer); type: cell-based, human; details: 10 µM single dose, 48 h
Method: as §6

HCC-2998 = assay: NCI-60 one-dose screen (colon cancer); type: cell-based, human; details: 10 µM single dose; for GP (growth percentage): 48 h; for inhibition at 10 µM: Homo sapiens
Method: as §6

HCT-116 = assay: NCI-60 one-dose screen (colon cancer); type: cell-based, human; details: 10 µM single dose, 48 h
Method: as §6

KM12 = assay: NCI-60 one-dose screen (colon cancer); type: cell-based, human; details: 10 µM single dose, 48 h
Method: as §6

[3] = Log P (experimental, n-octanol); type: physicochemical
[4] = Log D (experimental, n-octanol); type: physicochemical; details: n-octanol (aqueous phase not stated)
[5] = In vitro metabolic stability; type: in vitro ADME, rat (Sprague-Dawley); details: Rat liver microsomes; for % Metabolism in 30 min: 0.5 µM, 0.5 mg/mL protein; for half-life at 0.5 µM / microsomal CLint at 0.5 µM: male, Sprague-Dawley, pH 7.4
Method: as §1, §2, §3, §4

[6] = In vitro metabolic stability; type: in vitro ADME; details: for % Metabolism in 30 min: 0.5 µM, 0.5 mg/mL protein; for half-life at 0.5 µM / microsomal CLint at 0.5 µM: pH 7.4
Method: as §1, §2, §3, §4

COc1ccccc1NC1=C(Cl)C(=O)c2nc(C)ccc2C1=O [AQQ1]
% Metabolism in 30 min [1]: 41.5% | half-life at 0.5 µM [1]: 31 min | microsomal CLint at 0.5 µM [1]: 45 µL/min/mg | IC50 (DU-145 cells): 4.18 ± 0.73 µM | IC50 (MDA-MB-231 cells): 8.27 ± 0.91 µM | IC50 (HCT-116 cells): 5.83 ± 0.76 µM | IC50 [2]: 5.39 ± 0.73 µM | GP (growth percentage) (HCT-15): −47.03% | GP (growth percentage) (SW-620): −63.13% | GP (growth percentage) (HT29): 75.04% | GP (growth percentage) (COLO 205): 111.34% | GP (growth percentage) (HCC-2998): 58.90% | GP (growth percentage) (HCT-116): −80.64% | GP (growth percentage) (KM12): 69.40% | logP [3]: 1.85 | logD [4]: 2.37 | % Metabolism in 30 min [5]: 100% | half-life at 0.5 µM [5]: 2 min | microsomal CLint at 0.5 µM [5]: 656 µL/min/mg | % Metabolism in 30 min ([6]; Human liver microsomes): 39.5% | % Metabolism in 30 min ([6]; Mouse liver microsomes): 63% | half-life at 0.5 µM ([6]; Human liver microsomes): > 30 min | microsomal CLint at 0.5 µM ([6]; Human liver microsomes): 39 µL/min/mg | half-life at 0.5 µM ([6]; Mouse liver microsomes): 20.5 min | microsomal CLint at 0.5 µM ([6]; Mouse liver microsomes): 68.5 µL/min/mg

COc1cc(NC2=C(Cl)C(=O)c3nc(C)ccc3C2=O)cc(OC)c1 [AQQ5]
GP (growth percentage) (HCT-15): −66.21% | GP (growth percentage) (SW-620): −90.16% | GP (growth percentage) (HT29): 24.91% | inhibition at 10 µM (HT29): 75.1% | GP (growth percentage) (COLO 205): −80.52% | GP (growth percentage) (HCC-2998): 14.44% | inhibition at 10 µM (HCC-2998): 85.6% | GP (growth percentage) (HCT-116): −97.84% | GP (growth percentage) (KM12): 39.30%

CCOc1ccccc1NC1=C(Cl)C(=O)c2nc(C)ccc2C1=O [AQQ2]
% Metabolism in 30 min [1]: 79.5% | half-life at 0.5 µM [1]: 17 min | microsomal CLint at 0.5 µM [1]: 84 µL/min/mg | IC50 (DU-145 cells): 4.17 ± 0.8 µM | IC50 (MDA-MB-231 cells): 13.3 ± 1.12 µM | IC50 (HCT-116 cells): 9.18 ± 0.96 µM | IC50 [2]: 6.39 ± 0.8 µM | GP (growth percentage) (HCT-15): −76.56% | GP (growth percentage) (SW-620): −66.65% | GP (growth percentage) (HT29): 19.96% | inhibition at 10 µM (HT29): 80% | GP (growth percentage) (COLO 205): 99.24% | GP (growth percentage) (HCC-2998): 20.35% | inhibition at 10 µM (HCC-2998): 79.7% | GP (growth percentage) (HCT-116): −79.44% | GP (growth percentage) (KM12): 60.77% | logP [3]: 1.77 | logD [4]: 2.35 | % Metabolism in 30 min [5]: 100% | half-life at 0.5 µM [5]: 3 min | microsomal CLint at 0.5 µM [5]: 501 µL/min/mg | % Metabolism in 30 min ([6]; Human liver microsomes): 47% | % Metabolism in 30 min ([6]; Mouse liver microsomes): 96.5% | half-life at 0.5 µM ([6]; Human liver microsomes): 26.5 min | microsomal CLint at 0.5 µM ([6]; Human liver microsomes): 52 µL/min/mg | half-life at 0.5 µM ([6]; Mouse liver microsomes): 5.5 min | microsomal CLint at 0.5 µM ([6]; Mouse liver microsomes): 249 µL/min/mg

CCOc1ccc(NC2=C(Cl)C(=O)c3nc(C)ccc3C2=O)cc1 [AQQ3]
GP (growth percentage) (HCT-15): −83.19% | GP (growth percentage) (SW-620): −55.33% | GP (growth percentage) (HT29): 15.90% | inhibition at 10 µM (HT29): 84.1% | GP (growth percentage) (COLO 205): 98.22% | GP (growth percentage) (HCC-2998): −55.70% | GP (growth percentage) (HCT-116): −83.64% | GP (growth percentage) (KM12): 57.40%
